Here are results for 2 compounds from ChEMBL document CHEMBL1255264, “Mechanism-based pharmacokinetic-pharmacodynamic models of in vitro fungistatic and fungicidal effects against Candida albicans” (Antimicrob Agents Chemother, 2008).

As usually defined, the IC50 is the concentration at which inhibition is half-maximal. In general, MIC refers to the lowest concentration found to suppress growth. The EC50 is the concentration at which the effect is half-maximal.

Values after ≈ are worked out from the molar mass of the structure shown.

Assay [1] concerns Candida albicans. Kind of assay: Antifungal activity against Candida albicans ATCC 3153 in vitro pharmacokinetic-pharmacodynamic model. It is filed as functional, organism-based.
For assay [2], the system named is Candida albicans. Kind of assay: Antifungal activity against Candida albicans ATCC 3153 assessed as maximum killing rate in vitro pharmacokinetic-pharmacodynamic model. It is filed as functional.
Assay [3] concerns Candida albicans. In words: Antifungal activity against Candida albicans ATCC 3153 after 48 hrs. It is filed as functional. The settings on record: ATCC 3153, 48 h.
Assay [4] deals with Candida albicans. Kind of assay: Antifungal activity against Candida albicans ATCC 3153 assessed as death stimulation in vitro pharmacokinetic-pharmacodynamic model. The format is functional, organism-based.

On to `OC(Cn1cncn1)(Cn1cncn1)c1ccc(F)cc1F` [FLUCONAZOLE], for which the half-inhibitory concentration (IC50) in the assay on Candida albicans [1] was found to be 0.0929 µg/mL (≈ 0.303 µM).

With `CC[C@H](C)C[C@H](C)CCCCCCCCC(=O)N[C@H]1C[C@@H](O)[C@@H](NCCN)NC(=O)[C@@H]2[C@@H](O)CCN2C(=O)[C@H]([C@H](O)CCN)NC(=O)[C@H]([C@H](O)[C@@H](O)c2ccc(O)cc2)NC(=O)[C@@H]2C[C@@H](O)CN2C(=O)[C@H]([C@@H](C)O)NC1=O` [CASPOFUNGIN], in the assay on Candida albicans [2], the Emax is listed as 8.04 ×10⁻¹ /hr. The compound also gave an MIC in the assay with Candida albicans [3] of 0.015 µg/mL (≈ 0.0137 µM). For the same compound, in the assay on Candida albicans [4], the concentration for a half-maximal effect (EC50) was 0.000251 µg/mL (≈ 0.00023 µM).
